Measurements as given in patent publication US20190374557A1, “Cyclobutyl (S)-2-[[[(R)-2-(6-aminopurin-9-yl)-1-methyl-ethoxy]methyl-phenoxy-phosphoryl]amino]-propanoates, and production process and application thereof” (ALLA CHEM, LLC, priority 2017, published 2019).

Experiments:
[1] = tested on: HIV strain NL4.3 carrying a gene encoding the green fluorescent protein (NL4.3-GFP); details: SupT1 cells
in vitro = details: human, uninfected SupT1 cells (T-lymphocyte line)
[2] = tested on: HIV strain NL4.3 carrying a gene encoding the green fluorescent protein (NL4.3-GFP); experiment: microbe, parasite or virus in culture; details: Human immunodeficiency virus 1, SUP-T1, 45 h, read-out: Activity (EC50)

With `CC(C)OC(=O)[C@H](C)N[P@](=O)(CO[C@H](C)Cn1cnc2c(N)ncnc21)Oc1ccccc1` [TAF, tenofovir alafenamide] the “selectivity index SI = CC50/EC50” value [1] was 2857, the CC50 (in vitro) was over 100000 nM and the EC50 [2] was 35 nM.
